Common to all, as to type: biochemical
One assay concerns the target ITK (Homo sapiens (Human), UniProt Q08881). The assay can be described thus: IC50 against ITK.
Another assay has as its target TXK (Homo sapiens (Human), UniProt P42681). The assay can be described thus: IC50 against TXK. To be noted: for TXK/ITK: ratio of TXK IC50 to ITK IC50.
Another assay deals with JAK3 (Homo sapiens (Human), UniProt P52333). The assay can be described thus: IC50 against JAK3.
The target in a further assay is BTK (Homo sapiens (Human), UniProt Q06187). The assay can be described thus: IC50 against BTK.

The structures appear in SMILES notation.

ITK, sequence (Q08881 whole entry): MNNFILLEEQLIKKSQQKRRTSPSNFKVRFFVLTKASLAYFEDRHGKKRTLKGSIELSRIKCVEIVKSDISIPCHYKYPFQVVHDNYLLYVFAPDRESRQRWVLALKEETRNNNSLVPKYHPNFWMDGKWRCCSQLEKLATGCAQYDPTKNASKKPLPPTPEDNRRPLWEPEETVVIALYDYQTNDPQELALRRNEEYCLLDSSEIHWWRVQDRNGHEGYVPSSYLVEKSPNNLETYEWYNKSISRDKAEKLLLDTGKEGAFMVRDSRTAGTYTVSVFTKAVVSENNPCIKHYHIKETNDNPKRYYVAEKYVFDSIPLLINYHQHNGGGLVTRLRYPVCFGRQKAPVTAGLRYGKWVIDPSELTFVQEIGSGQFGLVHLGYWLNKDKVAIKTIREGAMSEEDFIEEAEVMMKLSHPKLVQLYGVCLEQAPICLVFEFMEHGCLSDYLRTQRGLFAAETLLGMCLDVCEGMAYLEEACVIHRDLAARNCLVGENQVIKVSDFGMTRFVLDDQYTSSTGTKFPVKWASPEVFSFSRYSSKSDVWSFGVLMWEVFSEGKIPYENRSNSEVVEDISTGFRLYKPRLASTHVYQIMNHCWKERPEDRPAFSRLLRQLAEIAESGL
JAK3, sequence (P52333 whole entry, species assumed): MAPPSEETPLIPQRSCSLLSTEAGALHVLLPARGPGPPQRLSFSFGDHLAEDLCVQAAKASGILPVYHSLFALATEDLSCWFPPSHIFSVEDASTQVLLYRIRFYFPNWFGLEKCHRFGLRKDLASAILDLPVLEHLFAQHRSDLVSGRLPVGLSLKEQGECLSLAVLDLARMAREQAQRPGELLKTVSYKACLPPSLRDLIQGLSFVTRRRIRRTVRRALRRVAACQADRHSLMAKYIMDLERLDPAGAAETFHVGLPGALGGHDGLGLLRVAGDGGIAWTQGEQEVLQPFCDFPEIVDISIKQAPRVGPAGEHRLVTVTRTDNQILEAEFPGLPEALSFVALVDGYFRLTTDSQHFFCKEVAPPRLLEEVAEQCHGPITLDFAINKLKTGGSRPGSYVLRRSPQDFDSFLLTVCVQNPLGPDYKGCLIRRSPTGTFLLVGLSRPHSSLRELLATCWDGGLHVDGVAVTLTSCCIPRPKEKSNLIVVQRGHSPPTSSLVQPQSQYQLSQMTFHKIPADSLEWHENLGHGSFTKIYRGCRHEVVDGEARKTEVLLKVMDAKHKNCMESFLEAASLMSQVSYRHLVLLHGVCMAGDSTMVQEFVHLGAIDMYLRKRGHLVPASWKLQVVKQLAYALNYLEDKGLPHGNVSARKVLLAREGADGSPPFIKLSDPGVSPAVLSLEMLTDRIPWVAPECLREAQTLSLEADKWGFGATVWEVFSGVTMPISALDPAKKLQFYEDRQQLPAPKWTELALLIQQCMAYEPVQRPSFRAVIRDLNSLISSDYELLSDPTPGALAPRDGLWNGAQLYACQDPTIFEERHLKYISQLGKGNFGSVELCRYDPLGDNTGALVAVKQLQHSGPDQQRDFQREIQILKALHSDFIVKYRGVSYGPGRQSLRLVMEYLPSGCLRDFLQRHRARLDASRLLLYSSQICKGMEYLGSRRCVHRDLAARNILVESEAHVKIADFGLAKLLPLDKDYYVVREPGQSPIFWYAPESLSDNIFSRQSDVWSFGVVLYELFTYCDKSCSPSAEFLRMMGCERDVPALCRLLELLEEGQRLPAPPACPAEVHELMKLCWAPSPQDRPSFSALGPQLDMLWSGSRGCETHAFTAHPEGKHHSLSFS
BTK, sequence (Q06187 whole entry, species assumed): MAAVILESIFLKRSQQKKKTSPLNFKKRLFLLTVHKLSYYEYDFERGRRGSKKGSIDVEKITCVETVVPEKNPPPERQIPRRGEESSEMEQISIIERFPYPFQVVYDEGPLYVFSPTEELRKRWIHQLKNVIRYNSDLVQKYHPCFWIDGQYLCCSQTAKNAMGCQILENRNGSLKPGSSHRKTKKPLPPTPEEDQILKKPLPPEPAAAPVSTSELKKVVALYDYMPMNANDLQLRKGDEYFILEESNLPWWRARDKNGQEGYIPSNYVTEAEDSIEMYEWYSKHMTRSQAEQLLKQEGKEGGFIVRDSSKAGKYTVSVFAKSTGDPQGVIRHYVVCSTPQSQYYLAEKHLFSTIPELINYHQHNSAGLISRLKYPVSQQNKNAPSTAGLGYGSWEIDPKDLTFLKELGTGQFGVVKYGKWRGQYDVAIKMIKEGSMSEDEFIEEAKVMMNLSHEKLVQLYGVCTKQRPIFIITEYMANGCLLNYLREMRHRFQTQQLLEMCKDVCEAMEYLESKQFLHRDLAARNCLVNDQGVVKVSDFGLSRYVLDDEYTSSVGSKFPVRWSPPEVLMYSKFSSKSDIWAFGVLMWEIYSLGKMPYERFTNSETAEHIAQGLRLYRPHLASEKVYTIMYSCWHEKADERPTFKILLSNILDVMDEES
TXK, sequence (P42681 whole entry, species assumed): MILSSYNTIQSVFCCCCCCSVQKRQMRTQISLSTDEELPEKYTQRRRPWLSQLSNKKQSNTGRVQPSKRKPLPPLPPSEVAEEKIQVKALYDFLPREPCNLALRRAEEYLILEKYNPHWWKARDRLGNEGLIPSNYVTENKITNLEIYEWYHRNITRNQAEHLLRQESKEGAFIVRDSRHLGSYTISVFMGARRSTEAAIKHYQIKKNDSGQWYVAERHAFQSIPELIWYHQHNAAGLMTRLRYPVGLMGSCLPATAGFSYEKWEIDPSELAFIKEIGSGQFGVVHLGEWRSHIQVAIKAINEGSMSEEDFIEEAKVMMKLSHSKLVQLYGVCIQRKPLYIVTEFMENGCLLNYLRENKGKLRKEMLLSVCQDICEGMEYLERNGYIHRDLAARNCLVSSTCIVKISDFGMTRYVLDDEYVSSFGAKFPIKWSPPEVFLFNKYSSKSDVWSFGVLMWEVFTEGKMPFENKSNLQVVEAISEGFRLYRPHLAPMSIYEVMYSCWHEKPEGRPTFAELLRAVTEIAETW

On to `C=CC(=O)N1CCN(C(=O)c2cc(Sc3cnc(NC(=O)C4CC4)s3)c(C)cc2C)CC1` [Compound 73], for which the IC50 was less than 10 nM against ITK, 10 to 100 nM against TXK, 100 to 1000 nM on JAK3 and 100 to 1000 nM against BTK. The TXK/ITK on TXK came to 3.2627.
Regarding `COc1cc(C)c(Sc2cnc(NC(=O)C3CC3)s2)cc1C(=O)N1CCN(C(=O)/C=C/CN(C)C)CC1` [Compound 3], the IC50 against ITK was 10 to 100 nM; against TXK, 100 to 1000 nM; against JAK3, not below 10000 nM; on BTK it was 1000 to 10000 nM. On TXK, the TXK/ITK turned out to be 5.162.
Take `C=CC(=O)N1CCC2(C1)CN(C(=O)c1cc(Sc3cnc(NC(=O)c4ccsc4)s3)c(C)cc1OC)C2` [Compound 145, N-(5-((5-(6-acryloyl-2,6-diazaspiro[3.4]octane-2-carbonyl)-4-methoxy-2-methylphenyl)thio)thiazol-2-yl)thiophene-3-carboxamide]: the IC50 was less than 10 nM against ITK, less than 10 nM against TXK, 10 to 100 nM at JAK3 and less than 10 nM at BTK. On TXK, the TXK/ITK is listed as 3.86.
Consider `C=CC(=O)N1CCN(C(=O)c2cc(Sc3cnc(NC4CC4)s3)c(C)cc2OC)CC1` [Compound 67], for which the IC50 at ITK was not below 10000 nM; against TXK, 1000 to 10000 nM; against JAK3 it was 1000 to 10000 nM; on BTK, not below 10000 nM. The TXK/ITK at TXK amounted to 0.634.
For `C=CC(=O)N1CCN(C(=O)c2cc(Sc3cnc(NC(=O)C4CC4)s3)c(C)cc2OC)CC[C@H]1C` [Compound 54], the IC50 against ITK was 10 to 100 nM; against TXK it was 10 to 100 nM; against JAK3, 1000 to 10000 nM; on BTK, 1000 to 10000 nM. Also, the TXK/ITK at TXK is given as 0.804.
On to `C=CC(=O)N1CCCN(C(=O)c2cc(Sc3cnc(NC(=O)C4CC4)s3)c(C)cc2C)C[C@H]1C` [Compound 59], for which the IC50 on ITK was less than 10 nM; against TXK, 100 to 1000 nM; on JAK3, 1000 to 10000 nM; against BTK, 1000 to 10000 nM. Moreover, the TXK/ITK at TXK worked out at 166.05.
In the case of `C=CC(=O)N1CCN(C(=O)c2cc(Sc3cnc(NC(=O)c4cnsc4)s3)c(C)cc2C)C[C@H]1CC` [Compound 131], the IC50 on ITK was less than 10 nM; at TXK it was 10 to 100 nM; at JAK3, 100 to 1000 nM; against BTK, 100 to 1000 nM. In addition, the TXK/ITK on TXK is given as 11.0.
With `C=CC(=O)N1CCN(C(=O)c2cc(Sc3cnc(NC(C)=O)s3)c(C)cc2OC)C(C)(C)C1` [Compound 5], the IC50 on ITK was less than 10 nM; against TXK, less than 10 nM; on JAK3, 100 to 1000 nM; against BTK, 10 to 100 nM. Moreover, at TXK, the TXK/ITK is recorded as 1.9721.
Turning to `C=CC(=O)N1CCCN(C(=O)c2cc(Sc3cnc(NC(=O)C4CC4)s3)c(F)cc2C)C[C@H]1C` [Compound 83], the IC50 at ITK was 10 to 100 nM; against TXK it was 1000 to 10000 nM; against JAK3, 1000 to 10000 nM; at BTK, not below 10000 nM. Moreover, the TXK/ITK at TXK is recorded as 45.317.
Consider `C=CC(=O)N1CCCN(C(=O)c2cc(Sc3cnc(NC(=O)C4CC4)s3)c(C)cc2OC)CC1` [Compound 25], for which the IC50 against ITK is less than 10 nM; against TXK, 10 to 100 nM; on JAK3 it was 100 to 1000 nM; on BTK it was 100 to 1000 nM. Further, the TXK/ITK at TXK worked out at 20.879.
As to `C=CC(=O)N1CC2(CCN(C(=O)c3cc(Sc4cnc(NC(=O)C5CC5)s4)c(C)cc3OC)C2)C1` [Compound 45], the IC50 on ITK was less than 10 nM; on TXK it was less than 10 nM; against JAK3, 10 to 100 nM; on BTK it was 10 to 100 nM. Moreover, on TXK, the TXK/ITK amounted to 4.1551.
On to `C=CC(=O)N1CCN(C(=O)c2cc(Sc3cnc(NC(=O)C4CC4)s3)c(Cl)cc2C)C[C@H]1CC` [Compound 101], for which the IC50 is 10 to 100 nM against ITK, 100 to 1000 nM against TXK, 100 to 1000 nM on JAK3 and not below 10000 nM against BTK. Moreover, the TXK/ITK on TXK came out at 14.4.
With `C=CC(=O)N1CCN(C(=O)c2cc(Sc3cnc(NC(=O)C4CC4)s3)c(C)cc2OC)CC(F)C1` (stereo not drawn) [Compound 55], the IC50 is less than 10 nM against ITK, less than 10 nM on TXK, 10 to 100 nM against JAK3 and 10 to 100 nM at BTK. Besides, on TXK, the TXK/ITK is 6.2416.
Consider `C=CC(=O)N1CCN(C(=O)c2cc(Sc3cnc(NC(=O)c4ccsc4)s3)c(C)cc2OC)C[C@H]1CC` [Compound 113], for which the IC50 against ITK is less than 10 nM; against TXK it was 10 to 100 nM; on JAK3, 100 to 1000 nM; against BTK it was 10 to 100 nM. Moreover, the TXK/ITK at TXK came out at 12.1.
Take `C=CC(=O)N1CCN(C(=O)c2cc(Sc3cnc(NC(C)=O)s3)c(C)cc2OC)[C@H](C)C1` [Compound 10]: the IC50 against ITK lay in the range of 10 to 100 nM; against TXK, 100 to 1000 nM; against JAK3, 1000 to 10000 nM; against BTK it was 100 to 1000 nM. Moreover, the TXK/ITK at TXK is on record as 8.0758.
As for `C=CC(=O)N1[C@@H]2CC[C@H]1CN(C(=O)c1cc(Sc3cnc(Nc4ccccn4)s3)c(C)cc1OC)C2` [Compound 150, 1-((1R, 5S)-3-(2-methoxy-4-methyl-5-((2-(pyridin-2-ylamino)thiazol-5-yl)thio)benzoyl)-3,8-diazabicyclo[3.2.1]octan-8-yl)prop-2-en-1-one], the IC50 is less than 10 nM against ITK, less than 10 nM at TXK, 10 to 100 nM against JAK3 and less than 10 nM on BTK. Also, at TXK, the TXK/ITK turned out to be 1.76.
Turning to `C=CC(=O)N1CCN(C(=O)c2cc(Sc3cnc(NC(=O)C4CC4)s3)c(C)cc2OC)[C@H](C)C1` [Compound 20], the IC50 at ITK was less than 10 nM; on TXK, 10 to 100 nM; on JAK3, 100 to 1000 nM; at BTK, 100 to 1000 nM. Besides, the TXK/ITK at TXK came to 2.2433.
For the compound `C=CC(=O)N1CCCN(C(=O)c2cc(Sc3cnc(NC(=O)C4CC4)s3)ccc2OC)C[C@H]1C` [Compound 77], the IC50 against ITK is 10 to 100 nM; on TXK, 1000 to 10000 nM; against JAK3, 1000 to 10000 nM; on BTK, not below 10000 nM. Also, on TXK, the TXK/ITK is on record as 95.398.
As for `C=CC(=O)N1CCN(C(=O)c2cc(Sc3cnc(NC(=O)c4cnn(CCN(C)C)c4)s3)c(C)cc2OC)CC1` [Compound 102], the IC50 against ITK is less than 10 nM; on TXK, 10 to 100 nM; on JAK3 it was 100 to 1000 nM; on BTK, 10 to 100 nM. In addition, the TXK/ITK on TXK worked out at 32.9.
For the compound `C=CC(=O)N1C[C@H]2CC[C@@H](C1)N2C(=O)c1cc(Sc2cnc(NC(C)=O)s2)c(C)cc1OC` [Compound 7], the IC50 is less than 10 nM at ITK, 10 to 100 nM against TXK, 10 to 100 nM at JAK3 and 10 to 100 nM against BTK. The TXK/ITK on TXK is given as 11.993.
In the case of `C=CC(=O)N1CCN(C(=O)c2cc(Sc3cnc(NC(=O)C4CC4)s3)c(Cl)cc2C)C[C@H]1C` [Compound 81], the IC50 is less than 10 nM against ITK, 100 to 1000 nM at TXK, 100 to 1000 nM against JAK3 and 1000 to 10000 nM on BTK. The TXK/ITK at TXK is recorded as 19.042.
Consider `C=CC(=O)N1CCN(C(=O)c2cc(Cc3cnc(NC(=O)C4CC4)s3)c(C)cc2OC)CC1` [Compound 65], for which the IC50 is less than 10 nM at ITK, less than 10 nM on TXK, 100 to 1000 nM against JAK3 and 10 to 100 nM on BTK. Moreover, at TXK, the TXK/ITK stood at 0.392.
Consider `C=CC(=O)N1C[C@@H]2C[C@H]1CN2C(=O)c1cc(Sc2cnc(NC(C)=O)s2)c(C)cc1OC` [Compound 24], for which the IC50 was less than 10 nM on ITK, 10 to 100 nM at TXK, 100 to 1000 nM on JAK3 and 10 to 100 nM at BTK. For the same compound, on TXK, the TXK/ITK is reported as 6.6876.
Regarding `C=CC(=O)N1CCN(C(=O)c2cc(Sc3cnc(NC(=O)c4ccsc4)s3)c(C)cc2C)C[C@H]1CC` [Compound 130], the IC50 against ITK was less than 10 nM; against TXK, 10 to 100 nM; on JAK3, 100 to 1000 nM; on BTK, 100 to 1000 nM. Moreover, the TXK/ITK at TXK was 7.0.
With `C=C(CN(C)C)C(=O)N1CCN(C(=O)c2cc(Sc3cnc(NC(=O)C4CC4)s3)c(C)cc2OC)CC1` [Compound 13], the IC50 was 10 to 100 nM on ITK, 100 to 1000 nM on TXK, 1000 to 10000 nM against JAK3 and 1000 to 10000 nM against BTK. Also, the TXK/ITK on TXK turned out to be 22.987.
As for `C=CC(=O)N1CCN(C(=O)c2cc(Sc3cnc(Nc4ccccn4)s3)c(C)cc2OC)[C@@H](C)C1` [Compound 151, (S)-1-(4-(2-methoxy-4-methyl-5-((2-(pyridin-2-ylamino)thiazol-5-yl)thio)benzoyl)-3-methylpiperazin-1-yl)prop-2-en-1-one], the IC50 is less than 10 nM against ITK, less than 10 nM on TXK, 10 to 100 nM against JAK3 and 10 to 100 nM against BTK. Moreover, the TXK/ITK on TXK is reported as 6.43.
In the case of `C=CC(=O)N1CCN(C(=O)c2cc(Sc3cnc(Nc4ncc(C)cc4C)s3)c(C)cc2C)CC1` [Compound 138], the IC50 on ITK fell in the range of 10 to 100 nM; at TXK it was 10 to 100 nM; on JAK3, 100 to 1000 nM; at BTK, 100 to 1000 nM. The TXK/ITK on TXK amounted to 3.29.
On to `C=CC(=O)N1[C@@H]2CC[C@H]1CN(C(=O)c1cc(Sc3cnc(NC(C)=O)s3)c(C)cc1OC)C2` [Compound 8], for which the half-maximal inhibitory concentration (IC50) on ITK was less than 10 nM; against TXK, 10 to 100 nM; against JAK3, 100 to 1000 nM; against BTK, 10 to 100 nM. For the same compound, the TXK/ITK on TXK is 11.265.
Consider `C=CC(=O)N1CCN(C(=O)c2cc(Sc3cnc(NC(=O)c4nccn4C)s3)c(C)cc2OC)CC1` [Compound 96], for which the IC50 against ITK is less than 10 nM; on TXK, 10 to 100 nM; on JAK3, 100 to 1000 nM; at BTK it was 100 to 1000 nM. Also, at TXK, the TXK/ITK was found to be 11.966.
In the case of `C=CC(=O)N1CCCN(C(=O)c2cc(Sc3cnc(NC(=O)C(C)(C)C)s3)c(C)cc2OC)CC1` [Compound 57], the IC50 on ITK is 100 to 1000 nM; at TXK, not below 10000 nM; against JAK3, not below 10000 nM; against BTK, not below 10000 nM. Moreover, the TXK/ITK at TXK came to 15.564.

These data come from patent US11008314B2, “Compounds and methods for modulating interleukin-2-inducible t-cell kinase” (CORVUS PHARMACEUTICALS, INC., priority 2016, dated 2021).
